# According to patent US20220089568A1 (Janssen Biotech, Inc., priority 2019, published 2022):
# How the values were obtained:
# MOLM-13 cells = experiment: MOLM-13 Cellular Assay; assay type: cell-based; conditions: Homo sapiens, 72 hours exposure, cell viability by CellTiter-Glo
# Protocol: The day prior to assay set-up, cells were pelleted, resuspended in fresh media, counted, and cells were plated at 0.4×10^6 cell/mL in a T150 flask. […] Cells were exposed to different concentrations of test compounds at 37° C., 5% CO2 for 72 hours immediately after seeding.
# human DHODH = target: T1, human DHODH (Homo sapiens, UniProt Q02127); experiment: DHODH Enzymatic Assay; assay type: biochemical; conditions: purified human DHODH; DCIP absorbance, end-point mode
# T1 construct: purchased Proteros PR-0044
# Method in brief: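 Purified human DHODH activity read as absorbance of DCIP, the terminal electron acceptor, in […] pH 7.5, 150 mM NaCl, 0.5 mM EDTA, 0.1% Triton X-100. Reaction started with a substrate mix of 20 mM DHO, 5 mM CoQ6 and 1 mM DCIP in assay buffer.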
# T1 sequence (Q02127 whole entry): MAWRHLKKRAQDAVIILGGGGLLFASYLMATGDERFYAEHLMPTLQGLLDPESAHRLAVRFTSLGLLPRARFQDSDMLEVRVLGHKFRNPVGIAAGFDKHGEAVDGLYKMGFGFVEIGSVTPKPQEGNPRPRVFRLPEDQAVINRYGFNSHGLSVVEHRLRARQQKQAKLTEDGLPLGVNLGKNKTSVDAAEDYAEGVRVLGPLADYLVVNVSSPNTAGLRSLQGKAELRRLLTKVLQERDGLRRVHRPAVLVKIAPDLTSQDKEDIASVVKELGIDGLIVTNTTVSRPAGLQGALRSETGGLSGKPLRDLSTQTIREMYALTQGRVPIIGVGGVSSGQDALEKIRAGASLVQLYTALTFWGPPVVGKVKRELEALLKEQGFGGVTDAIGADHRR
Compound,EC50 (MOLM-13 cells) [nM],EC50 (human DHODH) [nM]
"CCn1c(CO)nn(-c2nc(O[C@@H](C)C(F)(F)F)c(C(=O)Nc3c(OC)ccnc3Cl)cc2F)c1=O [Example 44, (S)-N-(2-Chloro-4-methoxypyridin-3-yl)-6-(4-ethyl-3-(hydroxymethyl)-5-oxo-4,5-dihydro-1H-1,2,4-triazol-1-yl)-5-fluoro-2-((1,1,1-trifluoropropan-2-yl)oxy)nicotinamide]",10.7,3.9
"CCn1c(CO)nn(-c2nc(O[C@@H](C)C(F)(F)F)c(C(=O)Nc3conc3C)cc2F)c1=O [Example 45, (S)-6-(4-Ethyl-3-(hydroxymethyl)-5-oxo-4,5-dihydro-1H-1,2,4-triazol-1-yl)-5-fluoro-N-(3-methylisoxazol-4-yl)-2-((1,1,1-trifluoropropan-2-yl)oxy)nicotinamide]",> 100,142
"CCn1c(CO)nn(-c2nc(O[C@@H](C)C(F)(F)F)c(C(=O)Nc3c(C)noc3C)cc2F)c1=O [Example 46, (S)-N-(3,5-Dimethylisoxazol-4-yl)-6-(4-ethyl-3-(hydroxymethyl)-5-oxo-4,5-dihydro-1H-1,2,4-triazol-1-yl)-5-fluoro-2-((1,1,1-trifluoropropan-2-yl)oxy)nicotinamide]",32.5,12.7
"CCn1c(CO)nn(-c2nc(O[C@@H](C)C(F)(F)F)c(C(=O)Nc3cc(OC)ccc3F)cc2F)c1=O [Example 47, (S)-6-(4-Ethyl-3-(hydroxymethyl)-5-oxo-4,5-dihydro-1H-1,2,4-triazol-1-yl)-5-fluoro-N-(2-fluoro-5-methoxyphenyl)-2-((1,1,1-trifluoropropan-2-yl)oxy)nicotinamide]",6.9,13.5
"CCn1c(CO)nn(-c2nc(O[C@@H](C)C(F)(F)F)c(C(=O)Nc3cc(C)ccc3Cl)cc2F)c1=O [Example 48, (S)-N-(2-Chloro-5-methylphenyl)-6-(4-ethyl-3-(hydroxymethyl)-5-oxo-4,5-dihydro-1H-1,2,4-triazol-1-yl)-5-fluoro-2-((1,1,1-trifluoropropan-2-yl)oxy)nicotinamide]",0.553,0.761
"CCn1c(CO)nn(-c2nc(O[C@@H](C)C(F)(F)F)c(C(=O)Nc3c(C)n[nH]c3C)cc2F)c1=O [Example 49, (S)-N-(3,5-Dimethyl-1H-pyrazol-4-yl)-6-(4-ethyl-3-(hydroxymethyl)-5-oxo-4,5-dihydro-1H-1,2,4-triazol-1-yl)-5-fluoro-2-((1,1,1-trifluoropropan-2-yl)oxy)nicotinamide]",21.1,6.4
"CCn1c(CO)nn(-c2nc(O[C@@H](C)C(F)(F)F)c(C(=O)Nc3cnc(OC)cc3Cl)cc2F)c1=O [Example 50, (S)-N-(4-Chloro-6-methoxypyridin-3-yl)-6-(4-ethyl-3-(hydroxymethyl)-5-oxo-4,5-dihydro-1H-1,2,4-triazol-1-yl)-5-fluoro-2-((1,1,1-trifluoropropan-2-yl)oxy)nicotinamide]",1.83,0.852
"CCn1c(CO)nn(-c2nc(O[C@@H](C)C(F)(F)F)c(C(=O)Nc3cc(C)cnc3C)cc2F)c1=O [Example 51, (S)-N-(2,5-Dimethylpyridin-3-yl)-6-(4-ethyl-3-(hydroxymethyl)-5-oxo-4,5-dihydro-1H-1,2,4-triazol-1-yl)-5-fluoro-2-((1,1,1-trifluoropropan-2-yl)oxy)nicotinamide]",52.4,6.4
CCn1c(CO)nn(-c2nc(O[C@@H](C)C(F)(F)F)c(C(=O)Nc3cc(Cl)cnc3C)cc2F)c1=O [Example 52],68.9,13
"CCn1c(CO)nn(-c2nc(O[C@@H](C)C(F)(F)F)c(C(=O)Nc3c(C)ccn(C)c3=O)cc2F)c1=O [Example 53, N-(1,4-Dimethyl-2-oxo-2,3-dihydro-1l4-pyridin-3-yl)-6-(4-ethyl-3-(hydroxymethyl)-5-oxo-4,5-dihydro-1H-1,2,4-triazol-1-yl)-5-fluoro-2-(((S)-1,1,1-trifluoropropan-2-yl)oxy)nicotinamide]",> 100,144
"CCn1c(CO)nn(-c2nc(O[C@@H](C)C(F)(F)F)c(C(=O)Nc3ncccc3Cl)cc2F)c1=O [Example 54, (S)-N-(3-Chloropyridin-2-yl)-6-(4-ethyl-3-(hydroxymethyl)-5-oxo-4,5-dihydro-1H-1,2,4-triazol-1-yl)-5-fluoro-2-((1,1,1-trifluoropropan-2-yl)oxy)nicotinamide]",6.9,5.2
"CCn1c(CO)nn(-c2nc(O[C@@H](C)C(F)(F)F)c(C(=O)Nc3c(C)nn(C)c3C)cc2F)c1=O [Example 55, (S)-6-(4-Ethyl-3-(hydroxymethyl)-5-oxo-4,5-dihydro-1H-1,2,4-triazol-1-yl)-5-fluoro-2-((1,1,1-trifluoropropan-2-yl)oxy)-N-(1,3,5-trimethyl-1H-pyrazol-4-yl)nicotinamide]",> 100,17.3
"CCn1c(CO)nn(-c2nc(O[C@@H](C)C(F)(F)F)c(C(=O)Nc3nc(OC)ccc3F)cc2F)c1=O [Example 56, (S)-6-(4-Ethyl-3-(hydroxymethyl)-5-oxo-4,5-dihydro-1H-1,2,4-triazol-1-yl)-5-fluoro-N-(3-fluoro-6-methoxypyridin-2-yl)-2-((1,1,1-trifluoropropan-2-yl)oxy)nicotinamide]",5.2,4.6
"CCn1c(CO)nn(-c2nc(O[C@@H](C)C(F)(F)F)c(C(=O)Nc3c[nH]nc3C)cc2F)c1=O [Example 57, (S)-6-(4-Ethyl-3-(hydroxymethyl)-5-oxo-4,5-dihydro-1H-1,2,4-triazol-1-yl)-5-fluoro-N-(3-methyl-1H-pyrazol-4-yl)-2-((1,1,1-trifluoropropan-2-yl)oxy)nicotinamide]",20.2,1.7
"CCn1c(CO)nn(-c2nc(O[C@@H](C)C(F)(F)F)c(C(=O)Nc3c[nH]nc3OC)cc2F)c1=O [Example 58, (S)-6-(4-Ethyl-3-(hydroxymethyl)-5-oxo-4,5-dihydro-1H-1,2,4-triazol-1-yl)-5-fluoro-N-(3-methoxy-1H-pyrazol-4-yl)-2-((1,1,1-trifluoropropan-2-yl)oxy)nicotinamide]",23.2,5.8
"CCn1c(CO)nn(-c2nc(O[C@@H](C)C(F)(F)F)c(C(=O)Nc3cc(C(C)C)nn3C)cc2F)c1=O [Example 59, (S)-6-(4-Ethyl-3-(hydroxymethyl)-5-oxo-4,5-dihydro-1H-1,2,4-triazol-1-yl)-5-fluoro-N-(3-isopropyl-1-methyl-1H-pyrazol-5-yl)-2-((1,1,1-trifluoropropan-2-yl)oxy)nicotinamide]",> 100,98.1
"CCn1c(CO)nn(-c2nc(O[C@@H](C)C(F)(F)F)c(C(=O)Nc3ncnc(C)c3Cl)cc2F)c1=O [Example 60, (S)-N-(5-Chloro-6-methylpyrimidin-4-yl)-6-(4-ethyl-3-(hydroxymethyl)-5-oxo-4,5-dihydro-1H-1,2,4-triazol-1-yl)-5-fluoro-2-((1,1,1-trifluoropropan-2-yl)oxy)nicotinamide]",> 100,254
"CCn1c(CO)nn(-c2nc(O[C@@H](C)C(F)(F)F)c(C(=O)Nc3cn(C)nc3COC)cc2F)c1=O [Example 61, (S)-6-(4-Ethyl-3-(hydroxymethyl)-5-oxo-4,5-dihydro-1H-1,2,4-triazol-1-yl)-5-fluoro-N-(3-(methoxymethyl)-1-methyl-1H-pyrazol-4-yl)-2-((1,1,1-trifluoropropan-2-yl)oxy)nicotinamide]",> 100,365
"CCn1c(CO)nn(-c2nc(O[C@@H](C)C(F)(F)F)c(C(=O)Nc3c[nH]nc3C3CC3)cc2F)c1=O [Example 62, (S)-N-(3-Cyclopropyl-1H-pyrazol-4-yl)-6-(4-ethyl-3-(hydroxymethyl)-5-oxo-4,5-dihydro-1H-1,2,4-triazol-1-yl)-5-fluoro-2-((1,1,1-trifluoropropan-2-yl)oxy)nicotinamide]",8.5,2.7
"CCn1c(CO)nn(-c2nc(O[C@@H](C)C(F)(F)F)c(C(=O)Nc3cnn(CCOC)c3)cc2F)c1=O [Example 63, (S)-6-(4-Ethyl-3-(hydroxymethyl)-5-oxo-4,5-dihydro-1H-1,2,4-triazol-1-yl)-5-fluoro-N-(1-(2-methoxyethyl)-1H-pyrazol-4-yl)-2-((1,1,1-trifluoropropan-2-yl)oxy)nicotinamide]",> 100,865
"CCn1c(CO)nn(-c2nc(O[C@@H](C)C(F)(F)F)c(C(=O)Nc3c(Cl)ccc(=O)n3C)cc2F)c1=O [Example 64, (S)-N-(3-Chloro-1-methyl-6-oxo-1,6-dihydropyridin-2-yl)-6-(4-ethyl-3-(hydroxymethyl)-5-oxo-4,5-dihydro-1H-1,2,4-triazol-1-yl)-5-fluoro-2-((1,1,1-trifluoropropan-2-yl)oxy)nicotinamide]",> 100,101
"CCn1c(CO)nn(-c2nc(O[C@@H](C)C(F)(F)F)c(C(=O)Nc3cc(OC)ncc3F)cc2F)c1=O [Example 65, (S)-6-(4-Ethyl-3-(hydroxymethyl)-5-oxo-4,5-dihydro-1H-1,2,4-triazol-1-yl)-5-fluoro-N-(5-fluoro-2-methoxypyridin-4-yl)-2-((1,1,1-trifluoropropan-2-yl)oxy)nicotinamide]",> 100,202
"CCn1c(CO)nn(-c2nc(O[C@@H](C)C(F)(F)F)c(C(=O)Nc3cc(OC)ncc3C)cc2F)c1=O [Example 66, (S)-6-(4-ethyl-3-(hydroxymethyl)-5-oxo-4,5-dihydro-1H-1,2,4-triazol-1-yl)-5-fluoro-N-(2-methoxy-5-methylpyridin-4-yl)-2-((1,1,1-trifluoropropan-2-yl)oxy)nicotinamide]",19.9,9.9
